Patent US8871934B2, “Fluorene compound and pharmaceutical use thereof” (Japan Tobacco Inc., priority 2008, dated 2014)
Like-named read-outs stand apart in the source and are kept apart here.

Target: human PDHK2 (hPDHK2) (Homo sapiens (Human), UniProt Q15119)
Experiment: Inhibitory action of PDHK activity in vitro (kinase reaction, residual PDH activity measured)
Assay type: biochemical
Method: In the case of human PDHK2 (hPDHK2, Genbank Accession No. NM_002611), modified hPDHK2 cDNA wherein FLAG-Tag sequence is added to the N terminal by a polymerase linkage reaction was prepared based on hPDHK2 cDNA clone (pReceiver-M01/PDK2-GeneCopoeia), and cloned into a vector (pET17b-Novagen). The recombinant construct was transformed into Escherichia coli (DH5α-TOYOBO). The recombinant clones were identified, plasmid DNA was isolated and subjected to the DNA sequence analysis. One clone which had the expected nucleic acid sequence was selected for expression work.
During the assay, the hPDHK2 enzyme concentration was set to the minimal concentration at which PDH is inhibited the most.
0.05 U/mL PDH (porcine heart PDH complex, Sigma P7032) and 1.6 μg/mL hPDHK2 were mixed in a buffer (50 mmol/L 3-morpholinopropanesulfonic acid (pH 7.0), 20 mmol/L dipotassium hydrogen phosphate, 60 mmol/L potassium chloride, 2 mmol/L magnesium chloride, 0.4 mmol/L EDTA, and 0.2% Pluronic F-68, 2 mmol/L dithiothreitol), the mixture was incubated at 4° C. overnight to give PDH/hPDHK2 complex. The test compound was diluted with dimethyl sulfoxide (DMSO). PDH/hPDHK2 complex (20 μL), test compound (1.5 μL) and 3.53 μmol/L ATP (diluted with buffer, 8.5 μL) were added to a half area 96 well UV-transparent microplate (Corning 3679), and PDHK reaction was performed at room temperature for 45 min. Instead of the test compound, DMSO (1.5 μL) was added to a control well. DMSO (1.5 μL) was added instead of the test compound to a blank well for the measurement of the maximum rate of PDH reaction, and hPDHK2 was not added. Than, 10 μL of substrates (5 mmol/L sodium pyruvate, 5 mmol/L Coenzyme A, 12 mmol/L NAD, and 5 mmol/L thiamine pyrophosphate, diluted with buffer) was added. The mixture was incubated at room temperature for 90 min, and the residual PDH activity was measured. The absorbance at 340 nm before and after PDH reaction was measured on a microplate reader to detect NADH produced by the PDH reaction. The PDHK inhibitory rate (%) of the test compound was calculated from the formula [{(PDH activity of test compound—PDH activity of control)/PDH activity of blank—PDH activity of control)}×100]. The IC50 value was calculated from the concentrations of the test compound at two points enclosing 50% inhibition of the PDHK activity.

[1] = PDHK inhibitory activity (class symbol)
[2] = read-out: PDHK inhibitory activity IC50
[3] = PDHK inhibitory activity, class symbol of IC50
[4] = PDHK inhibitory activity IC50 (μmol/L)

Row | SMILES | IC50 [1] [nM] | IC50 [2] [nM] | IC50 (read-out: PDHK inhibitory activity, class symbol of IC50) [nM] | IC50 [3] [nM] | IC50 [4] [nM]
1 | CC(C)(CC(=O)O)n1cc(-c2cc(F)cc3c2-c2ccccc2C3(O)C(F)(F)F)cn1 (single isomer, unassigned) [compound 610] | < 100 | 41 |  |  | 
2 | COc1cc(-c2cnn(C(C)(C)CC(=O)O)c2)c2c(c1)C(O)(C(F)(F)F)c1ccccc1-2 (single isomer, unassigned) [compound 614] | < 100 | 37 |  |  | 
3 | COC(=O)c1cc(Cl)cc2c1-c1ccccc1C2(O)C(F)(F)F (single isomer, unassigned) [compound 617] | < 100 | 84 |  |  | 
4 | COc1cc(-c2cnn(CC(C)(C)C(=O)O)c2)c2c(c1)C(O)(C(F)(F)F)c1ccccc1-2 (single isomer, unassigned) [compound 619] | < 100 | 33 |  |  | 
5 | OCCCCOc1cc(-c2cnn(CCO)c2)c2c(c1)C(O)(C(F)(F)F)c1ccccc1-2 (single isomer, unassigned) [compound 624] | < 100 | 14 |  |  | 
6 | CCn1cc(-c2cc(CO)c3c(c2)C(O)(C(F)(F)F)c2ccccc2-3)cn1 (single isomer, unassigned) [compound 629, 4-hydroxymethyl-2-(1-ethyl-1H-pyrazol-4-yl)-9-trifluoromethyl-9H-fluoren-9-ol] | < 100 | 45 |  |  | 
7 | COC(=O)c1cc(Cl)c2c(c1)C(O)(C(F)(F)F)c1ccccc1-2 (single isomer, unassigned) [compound 647, 4-chloro-9-hydroxy-9-trifluoromethyl-9H-fluorene-2-carboxylic acid methyl ester] | 100 to 1000 | 169 |  |  | 
8 | O=C(c1cc(-c2cnn(CCO)c2)c2c(c1)C(O)(C(F)(F)F)c1ccccc1-2)N1CCCC1 (single isomer, unassigned) [compound 657] | < 100 | 20 |  |  | 
9 | CC(C)(C)Cn1cc(-c2cc(C(N)=O)c3c(c2)C(O)(C(F)(F)F)c2ccccc2-3)cn1 (single isomer, unassigned) [compound 659, 2-[1-(2,2-dimethyl-propyl)-1H-pyrazol-4-yl]-9-hydroxy-9-trifluoromethyl-9H-fluorene-4-carboxylic acid amide] | < 100 | 16 |  |  | 
10 | CC(C)(C)Cn1cc(-c2cc(CO)c3c(c2)C(O)(C(F)(F)F)c2ccccc2-3)cn1 (single isomer, unassigned) [compound 660, 2-[1-(2,2-dimethyl-propyl)-1H-pyrazol-4-yl]-4-hydroxymethyl-9-trifluoromethyl-9H-fluoren-9-ol] | < 100 | 17 |  |  | 
11 | Cc1cc(-c2cnn(CC(CO)CO)c2)c2c(c1)C(O)(C(F)(F)F)c1ccccc1-2 (single isomer, unassigned) [compound 663] | < 100 | 18 |  |  | 
12 | CC(C)=Cc1cc(-c2cnn(C(CO)CO)c2)c2c(c1)C(O)(C(F)(F)F)c1ccccc1-2 (single isomer, unassigned) [compound 664] | < 100 | 15 |  |  | 
13 | CC(C)Cc1cc(-c2cnn(C(CO)CO)c2)c2c(c1)C(O)(C(F)(F)F)c1ccccc1-2 (single isomer, unassigned) [compound 665] | < 100 | 23 |  |  | 
14 | NC(=O)c1cc(-c2cnn(CC3CCCCC3)c2)cc2c1-c1ccccc1C2(O)C(F)(F)F (single isomer, unassigned) [compound 667, 2-(1-cyclohexylmethyl-1H-pyrazol-4-yl)-9-hydroxy-9-trifluoromethyl-9H-fluorene-4-carboxylic acid amide] | < 100 | 15 |  |  | 
15 | OCc1cc(-c2cnn(CC3CCCCC3)c2)cc2c1-c1ccccc1C2(O)C(F)(F)F (single isomer, unassigned) [compound 668] | < 100 | 17 |  |  | 
16 | CC(C)(C)CCc1cc(-c2cnn(C(CO)CO)c2)c2c(c1)C(O)(C(F)(F)F)c1ccccc1-2 (single isomer, unassigned) [compound 669] | < 100 | 17 |  |  | 
17 | CC(C)(O)Cn1cc(-c2cc(F)cc3c2-c2ccccc2C3(O)C(F)(F)F)cn1 (single isomer, unassigned) [compound 674] | < 100 | 30 |  |  | 

Row | SMILES | IC50 [1] [nM] | IC50 [2] [nM] | IC50 (read-out: PDHK inhibitory activity, class symbol of IC50) [nM] | IC50 [3] [nM] | IC50 [4] [nM]
18 | OCC(CO)c1ncc(-c2cc(F)cc3c2-c2ccccc2C3(O)C(F)(F)F)o1 (single isomer, unassigned) [compound 682] | < 100 | 79 |  |  | 
19 | OCC(CO)c1noc(-c2cc(F)cc3c2-c2ccccc2C3(O)C(F)(F)F)n1 (single isomer, unassigned) [compound 685] | 100 to 1000 | 338 |  |  | 
20 | CC(C)(O)C(C)(C)n1cc(-c2cc(F)cc3c2-c2ccccc2C3(O)C(F)(F)F)cn1 (single isomer, unassigned) [compound 687] | < 100 | 51 |  |  | 
21 | Cc1cc(-c2cnn(CCCc3nn[nH]n3)c2)c2c(c1)C(O)(C(F)(F)F)c1ccccc1-2 (single isomer, unassigned) [compound 691] | < 100 | 30 |  |  | 
22 | CC(CO)(CO)n1cc(-c2cccc3c2-c2ccccc2C3(O)C(F)(F)F)cn1 (single isomer, unassigned) [compound 702] | < 100 | 30 |  |  | 
23 | OCC(CO)(CO)n1cc(-c2cccc3c2-c2ccccc2C3(O)C(F)(F)F)cn1 (single isomer, unassigned) [compound 706] | < 100 | 31 |  |  | 
24 | OC1(C(F)(F)F)c2ccccc2-c2c(Cl)cc(F)cc21 (single isomer, unassigned; (+)) [Compound No. 526, (+)-4-chloro-2-fluoro-9-trifluoromethyl-9H-fluoren-9-ol] |  | 397 | 100 to 1000 |  | 
25 | Cc1cc(-c2cnn(CCC(=O)O)c2)c2c(c1)C(O)(C(F)(F)F)c1ccccc1-2 (single isomer, unassigned; (+)) [compound 538, (+)-3-[4-(9-hydroxy-2-methyl-9-trifluoromethyl-9H-fluoren-4-yl)-pyrazol-1-yl]-propionic acid] |  | 26 |  | < 100 | 
26 | Cc1cc(-c2cnn(CCCC(=O)O)c2)c2c(c1)C(O)(C(F)(F)F)c1ccccc1-2 (single isomer, unassigned; (+)) [compound 539, (+)-4-[4-(9-hydroxy-2-methyl-9-trifluoromethyl-9H-fluoren-4-yl)-pyrazol-1-yl]-butyric acid] |  | 27 |  | < 100 | 
27 | OCC(CO)n1cc(-c2cc(F)cc3c2-c2ccccc2C3(O)C(F)(F)F)cn1 (single isomer, unassigned; (+)) [compound 595, (+)-2-[4-(2-fluoro-9-hydroxy-9-trifluoromethyl-9H-fluoren-4-yl)-pyrazol-1-yl]-propane-1,3-diol] |  | 22 |  | < 100 | 
28 | CC(CO)(CO)n1cc(-c2cc(F)cc3c2-c2ccccc2C3(O)C(F)(F)F)cn1 (single isomer, unassigned; (+)) [compound 673, (+)-2-[4-(2-fluoro-9-hydroxy-9-trifluoromethyl-9H-fluoren-4-yl)-pyrazol-1-yl]-2-methyl-propane-1,3-diol] | < 100 | 22 |  |  | 
29 | OCC(CO)(CO)n1cc(-c2cc(F)cc3c2-c2ccccc2C3(O)C(F)(F)F)cn1 (single isomer, unassigned; (+)) [compound 703, (+)-2-[4-(2-fluoro-9-hydroxy-9-trifluoromethyl-9H-fluoren-4-yl)-pyrazol-1-yl]-2-hydroxymethyl-propane-1,3-diol] | < 100 | 20 |  |  | 
30 | CCn1cc(-c2cc(C(N)=O)c3c(c2)C(O)(C(F)(F)F)c2ccccc2-3)cn1 (single isomer, unassigned; (-)) [compound 630, (−)-2-(1-ethyl-1H-pyrazol-4-yl)-9-hydroxy-9-trifluoromethyl-9H-fluorene-4-carboxylic acid amide] | < 100 | 20 |  |  | 
31 | Cc1cc(Cl)c2c(c1)[C@](O)(C(F)(F)F)c1ccccc1-2 (stereo in doubt) [compound 520] |  |  |  | > 1000 | 3330
32 | Cc1cc(-c2cnn(CCO)c2)c2c(c1)[C@@](O)(C(F)(F)F)c1ccccc1-2 (stereo in doubt) [compound 529] |  |  |  | < 100 | 17
33 | OCCn1cc(-c2cc(F)cc3c2-c2ccccc2[C@]3(O)C(F)(F)F)cn1 (stereo in doubt) [compound 531] |  |  |  | < 100 | 20
34 | Cc1cc(-c2cnn(CC(N)=O)c2)c2c(c1)[C@@](O)(C(F)(F)F)c1ccccc1-2 (stereo in doubt) [compound 532] |  |  |  | < 100 | 16
